Experimental data from publication PMC7076352 (Pharmaceutics, 2020).
Where “and” joins values, the source holds several entries; their conditions need not be identical. Equal entries are not always repeated. Where two headings read alike, the source gives them in different places. One block for each molecule: values may come before it.

Key:
CYP2D6 = experiment: in vitro
Protocol: (§1) (OHBUP-[D6]) and 5 nM 4′-hydroxydiclofenac-[^13C6] (OHDIC-[^13C6]) as internal standards (ISs). […]
(§2) standard addition experiments. Each group included four concentration levels. For the PK […]
(§3) The probe compounds, viz. […]
(§4) chosen after incubating all the recruited substrates. In order to assure the linear relationship […]
(§5) The incubation system was also optimized in terms of substrate concentrations. The substrates concentrations of […]

CYP1A2 = target: T1, CYP1A2 (Rattus norvegicus, UniProt P04799); experiment: In vitro cocktail CYP450 activity assay in rat liver microsomes, CYP1A2 (phenacetin probe)
T1 sequence (P04799 1-513): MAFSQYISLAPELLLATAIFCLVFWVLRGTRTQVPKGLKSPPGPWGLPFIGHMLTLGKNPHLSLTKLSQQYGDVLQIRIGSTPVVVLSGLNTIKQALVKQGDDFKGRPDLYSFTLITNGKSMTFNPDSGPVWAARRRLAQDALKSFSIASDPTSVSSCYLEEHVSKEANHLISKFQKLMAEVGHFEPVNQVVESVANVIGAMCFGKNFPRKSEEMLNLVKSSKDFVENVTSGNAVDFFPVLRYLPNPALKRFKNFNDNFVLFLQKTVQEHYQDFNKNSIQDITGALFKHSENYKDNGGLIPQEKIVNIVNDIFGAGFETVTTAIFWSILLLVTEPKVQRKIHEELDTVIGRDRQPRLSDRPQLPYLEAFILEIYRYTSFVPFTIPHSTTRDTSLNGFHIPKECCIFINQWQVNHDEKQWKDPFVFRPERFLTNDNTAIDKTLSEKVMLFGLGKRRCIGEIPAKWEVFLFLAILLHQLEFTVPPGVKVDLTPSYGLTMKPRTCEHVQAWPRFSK
Protocol: as §1, §2, §3, §4, §5

CYP3A4 = experiment: in vitro
Protocol: as §1, §2, §3, §4, §5

CYP2B6 = experiment: in vitro; conditions: for IC50 at 15 min: Sprague-Dawley, rat, pooled rat liver microsomes, pH 7.4, probe bupropion (90 µM, in seven-probe cocktail), IC50 CYP2B6, single components
Protocol: as §1, §2, §3, §4, §5

CYP2C9 = experiment: in vitro
Protocol: as §1, §2, §3, §4, §5

CYP2C19 = experiment: in vitro
Protocol: as §1, §2, §3, §4, §5

CYP2E1 [1] = target: T2, CYP2E1 (Rattus norvegicus, UniProt P05182); conditions: IC50 CYP2E1, single components; RLM 0.2 mg/mL, 15 min, triplicate, mean ± SD
CYP2E1 [2] = target: T2, CYP2E1
[3] = Sprague-Dawley, rat, microsomes, pH 7.4
[4] = IC50 CYP1A2, single components, RLM 0.2 mg/mL, 15 min, triplicate, mean ± SD
[5] = RLM 0.2 mg/mL, 15 min, triplicate, mean ± SD
[6] = read-out: IC50 CYP2B6, single components, RLM 0.2 mg/mL, 15 min, triplicate, mean ± SD

T2 sequence (P05182 whole entry): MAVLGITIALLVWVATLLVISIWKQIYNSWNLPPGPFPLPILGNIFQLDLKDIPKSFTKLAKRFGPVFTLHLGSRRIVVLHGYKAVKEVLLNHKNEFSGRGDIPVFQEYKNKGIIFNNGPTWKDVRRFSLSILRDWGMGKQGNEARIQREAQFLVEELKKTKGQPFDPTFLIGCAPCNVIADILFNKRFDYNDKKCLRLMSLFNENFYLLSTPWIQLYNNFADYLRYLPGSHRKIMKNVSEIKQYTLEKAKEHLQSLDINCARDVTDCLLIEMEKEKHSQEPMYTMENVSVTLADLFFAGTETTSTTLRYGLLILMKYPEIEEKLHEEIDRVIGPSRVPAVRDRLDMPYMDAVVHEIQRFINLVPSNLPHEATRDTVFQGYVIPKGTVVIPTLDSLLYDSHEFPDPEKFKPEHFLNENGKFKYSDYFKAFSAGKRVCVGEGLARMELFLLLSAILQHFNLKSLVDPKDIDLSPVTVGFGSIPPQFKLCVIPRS

Molecule: Carthamus tinctorius extract [CTE]
- IC50 CYP1A2 (CYP1A2; microsomes): 138.60 ± 14.36 µg/mL
- inhibition on CYP1A2 (in words) (CYP1A2; microsomes): weak inhibition
- IC50 CYP2D6 (CYP2D6; microsomes): 126.17 ± 17.63 µg/mL
- inhibition on CYP2D6 (in words) (CYP2D6; microsomes): weak inhibition
- IC50 CYP3A4 (CYP3A4; microsomes): >200 µg/mL
- IC50 CYP2B6 (CYP2B6; microsomes): 58.09 ± 13.41 µg/mL
- inhibition on CYP2B6 (in words) (CYP2B6; microsomes): moderate inhibition
- IC50 CYP2C9 (CYP2C9; microsomes): 183.30 ± 17.98 µg/mL
- inhibition on CYP2C9 (in words) (CYP2C9; microsomes): weak inhibition
- IC50 CYP2C19 (CYP2C19; microsomes): >200 µg/mL

Molecule: O=c1c(O[C@@H]2O[C@H](CO)[C@@H](O)[C@H](O)[C@H]2O)c(-c2ccc(O)cc2)oc2cc(O)cc(O)c12 [A7, kaempferol-3-O-glucoside]
- IC50 (CYP1A2; read-out: IC50 CYP1A2, single components, RLM 0.2 mg/mL, 15 min, triplicate, mean ± SD): 153 ± 8.73 µM
- IC50 (CYP2D6; read-out: IC50 CYP2D6, single components, RLM 0.2 mg/mL, 15 min, triplicate, mean ± SD): 31 ± 4.17 µM
- IC50 (CYP3A4; read-out: IC50 CYP3A4, single components, RLM 0.2 mg/mL, 15 min, triplicate, mean ± SD): 127 ± 4.24 µM
- IC50 (CYP2B6; [6]): 177 ± 4.21 µM
- IC50 (CYP2C9; read-out: IC50 CYP2C9, single components, RLM 0.2 mg/mL, 15 min, triplicate, mean ± SD): 80.5 ± 1.05 µM
- IC50 (CYP2E1 [2]; read-out: IC50 CYP2E1, single components, RLM 0.2 mg/mL, 15 min, triplicate, mean ± SD): 13.6 ± 0.6 µM
- IC50 (CYP2C19; read-out: IC50 CYP2C19, single components, RLM 0.2 mg/mL, 15 min, triplicate, mean ± SD): 18.5 ± 1.6 µM

Now from value to molecule:

- IC50 (CYP1A2; [4]): < 5 µM and 0.12 µM
- IC50 at 15 min (CYP2B6; [5]): < 5 µM
- IC50 (CYP2B6; [6]): 4.42 ± 1.31 µM
- IC50 (CYP2E1 [1]): < 5 µM and 4.27 µM
Molecule: O=c1c(O)c(-c2ccc(O)cc2)oc2cc(O)c(O)c(O)c12 [A18, 6-hydroxykaempferol]

- IC50 (CYP1A2; microsomes): > 200 µM
- IC50 (CYP2D6; microsomes): 98.6 ± 12.3 µM
- IC50 (CYP3A4; microsomes): > 200 µM
- IC50 (CYP2B6; microsomes): > 200 µM
- IC50 (CYP2C9; microsomes): > 200 µM
- IC50 (CYP2E1 [2]; microsomes): > 200 µM
- IC50 (CYP2C19; microsomes): > 200 µM
Molecule: C[C@@H]1OC(OC[C@H]2OC(Oc3c(-c4ccc(O)cc4)oc4cc(O)c(OC5O[C@H](CO)[C@@H](O)[C@H](O)[C@H]5O)c(O)c4c3=O)[C@H](O)[C@@H](O)[C@@H]2O)[C@H](O)[C@H](O)[C@H]1O (stereo partly drawn) [A12, 6-hydroxykaempferol-3-O-rutinosyl-6-O-glucoside]

- IC50 (CYP1A2; [4]): 21.5 ± 4.5 µM
- IC50 at 15 min (CYP2D6; Sprague-Dawley, rat, microsomes, pH 7.4, IC50 CYP2D6): 59.2 ± 1.01 µM
- IC50 at 15 min (CYP3A4; [3]): 117 ± 6.77 µM
- IC50 at 15 min (CYP2B6; [5]): > 200 µM
- IC50 at 15 min (CYP2C9; Sprague-Dawley, rat, pooled rat liver microsomes, pH 7.4, probe tolbutamide (18 µM, in seven-probe cocktail), IC50 CYP2C9, single components, RLM 0.2 mg/mL, 15 min, triplicate, mean ± SD): 14.9 ± 4.24 µM
- IC50 at 15 min (CYP2C19; Sprague-Dawley, rat, pooled rat liver microsomes, pH 7.4, probe omeprazole (1.07 µM, in seven-probe cocktail), IC50 CYP2C19, single components, RLM 0.2 mg/mL, 15 min, triplicate, mean ± SD): 70.4 ± 1.18 µM
- IC50 (CYP2E1 [1]): 32.5 ± 5.79 µM
Molecule: O=c1c(O)c(-c2ccc(O)cc2)oc2cc(O)cc(O)c12 [A17, kaempferol]
